Test results from patent publication US20220073592A1, “SYNTHETIC AND RECOMBINANT COLLAGEN PEPTIDES HAVING BIOLOGICAL ACTIVITY” (GELITA AG, priority 2018, published 2022).
Where “and” joins values, the source holds several entries; their conditions need not be identical. Identical values can stand only once. Where no end group is shown, it is not given here. [ ]: non-standard residue; d: D form. Hyp = O=C(O)[C@@H]1C[C@@H](O)CN1

Assays:
Assay type in all cases: cell-based
human chondrocytes [1] = assay: Blyscan glycosaminoglycan assay, proteoglycan synthesis by chondrocytes; conditions: 0.5 mg/ml; for increase in collagen synthesis (in the proteoglycan assay, chondrocytes): hydroxylated peptides; for increase in the synthesis of proteoglycans by chondrocytes compared to untreated controls: non-hydroxylated peptides
human dermal fibroblasts [2] = assay: Blyscan glycosaminoglycan assay, proteoglycan synthesis by dermal fibroblasts; conditions: 0.5 mg/ml, two weeks stimulation; for increase in the synthesis of proteoglycans by dermal fibroblasts compared to untreated controls: hydroxylated peptides; for increase in collagen synthesis (in the proteoglycan assay, dermal fibroblasts): non-hydroxylated peptides
Description: The human cells used were obtained from tebu-bio GmbH, Offenbach, Germany. The chondrocytes (Cat. No. 402-05a) or dermal fibroblasts (Cat. No. 106-05a) were first sown in 12-well culture plates and cultured at 37° C., 5% CO2 in Ham's F12 medium, to which 10% fetal calf serum, 20 U/ml penicillin-streptomycin and 50 μg/ml ascorbic acid were added. On every other day, the culture medium was replaced by new culture medium until the cells had reached 80% confluence. […] The Blyscan glycosaminoglycan assay (Article No. 054B3000, 2019, tebu-bio, Offenbach, Germany, or Biocolor Ltd., UK) was used to determine proteoglycans. The biosynthesis of proteoglycans was determined after stimulating dermal fibroblasts for two weeks. According to the manufacturer's instructions, after discarding the culture medium, the cell layers were covered with 1 ml of papain extraction solution and incubated for three hours at 65° C. with vigorous shaking. The cell suspensions were then centrifuged (10,000 g, 10 min) and the supernatants were collected. After adding 1 ml of Blyscan dye solution and shaking (30 min), the supernatants were centrifuged again (12,000 rpm, 10 min) and then discarded. The isolated proteoglycan pellets were resuspended in 500 μl of dissociation solution. A photometric determination of the synthesized proteoglycan in 200 μl sample solution was carried out at a wavelength of 656 nm in comparison to untreated control experiments.

human chondrocytes [3] = assay: Sircol collagen assay, collagen synthesis by chondrocytes; conditions: 0.5 mg/ml peptide, three weeks stimulation
Description: (§1) The human cells used were obtained from tebu-bio GmbH, Offenbach, Germany. The chondrocytes (Cat. No. 402-05a) or dermal fibroblasts (Cat. No. 106-05a) were first sown in 12-well culture plates and cultured at 37° C., 5% CO2 in Ham's F12 medium, to which 10% fetal calf serum, 20 U/ml penicillin-streptomycin and 50 μg/ml ascorbic acid were added. On every other day, the culture medium was replaced by new culture medium until the cells had reached 80% confluence. […] To investigate the collagen metabolism, the amount of newly synthesized collagen was determined after stimulating the cells with 0.5 mg/ml BCP for three weeks. The synthesized collagen was isolated using the Sircol assay (Article No. 054S5000, 2019, tebu-bio, Offenbach, Germany, or Biocolor Ltd., UK) according to the manufacturer's instructions. In brief, the culture medium was initially discarded and the adherent cell layers were digested with 0.1 mg pepsin solution in 0.5 M acetic acid at 4° C. overnight. The cell suspensions were neutralized by adding 100 μl of an acid-neutralizing reagent. The synthesized collagen was then separated off by adding 200 μl of an isolation and concentration solution with vigorous shaking at 4° C. overnight. After centrifugation (12,000 rpm, 10 min) and discarding the supernatant, the isolated collagen was resuspended in 1 ml of Sircol dye solution. After 30 minutes of shaking and another centrifugation, the collagen pellet was covered with 750 μl of cold acidic solid washing reagent. After another centrifugation, the supernatant was again discarded and the enriched collagen was taken up in 250 μl of alkaline solution. In each case 200 μl of the sample solutions were used for photometric quantification of the synthesized collagen. The absorbance was measured at a wavelength of 492 nm. The amount of collagen synthesized in each case was determined on the basis of standardized collagen solutions.

human dermal fibroblasts [4] = assay: Sircol collagen assay, collagen synthesis by dermal fibroblasts; conditions: 0.5 mg/ml peptide, three weeks stimulation
Description: as §1

Gly-Pro-4Hyp-Gly-Pro-Ala-Gly-Glu-Lys-Gly-Ala-4Hyp-Gly-Ala-Asp-Gly-Pro-Ala-Gly-Ala-4Hyp-Gly-Thr-Pro-Gly-Pro-Gln-Gly-Ile-Ala-Gly-Gln-Arg-Gly-Val (GP[Hyp]GPAGEKGA[Hyp]GADGPAGA[Hyp]GTPGPQGIAGQRGV) [SEQ ID No. 22, collagen peptide comprising 35 amino acids]
increase in collagen synthesis (in the proteoglycan assay, chondrocytes) (human chondrocytes [1]): 26% | increase in the synthesis of proteoglycans by dermal fibroblasts compared to untreated controls (human dermal fibroblasts [2]): 28% | increase in collagen synthesis by chondrocytes compared to untreated controls (human chondrocytes [3]): 46% | increase in collagen synthesis by dermal fibroblasts compared to untreated controls (human dermal fibroblasts [4]): 43%

GAPGKDGVRGLTGPIGPPGPAGA [SEQ ID No. 12, collagen peptide comprising 23 amino acids]
increase in the synthesis of proteoglycans by chondrocytes compared to untreated controls (human chondrocytes [1]): 23% | increase in collagen synthesis (in the proteoglycan assay, dermal fibroblasts) (human dermal fibroblasts [2]): 19% | increase in collagen synthesis by chondrocytes compared to untreated controls (human chondrocytes [3]): 24% | increase in collagen synthesis by dermal fibroblasts compared to untreated controls (human dermal fibroblasts [4]): 22%

Gly-Pro-4Hyp-Gly-Pro-Val-Gly-Thr-Lys-Gly-Ile-4Hyp-Gly-Val-Tyr-Gly-Pro-Leu-Gly-Ile-4Hyp-Gly-Thr-Pro-Gly-Pro-Trp-Gly-Ile-Leu-Gly-Thr-Lys-Arg-Gly-Val (GP[Hyp]GPVGTKGI[Hyp]GVYGPLGI[Hyp]GTPGPWGILGTKRGV) [SEQ ID No. 24, collagen peptide comprising 36 amino acids]
increase in collagen synthesis (in the proteoglycan assay, chondrocytes) (human chondrocytes [1]): 15% and 26% | increase in the synthesis of proteoglycans by dermal fibroblasts compared to untreated controls (human dermal fibroblasts [2]): 26% | increase in collagen synthesis by chondrocytes compared to untreated controls (human chondrocytes [3]): 26% | increase in collagen synthesis by dermal fibroblasts compared to untreated controls (human dermal fibroblasts [4]): 36%

Gly-Ala-4Hyp-Gly-Lys-Asp-Gly-Val-Arg-Gly-Leu-Thr-Gly-Pro-Ile-Gly-Pro-4Hyp-Gly-Pro-Ala-Gly-Ala-Arg (GA[Hyp]GKDGVRGLTGPIGP[Hyp]GPAGAR) [SEQ ID No. 9, collagen peptide comprising 24 amino acids]
increase in collagen synthesis (in the proteoglycan assay, chondrocytes) (human chondrocytes [1]): 19% | increase in the synthesis of proteoglycans by dermal fibroblasts compared to untreated controls (human dermal fibroblasts [2]): 27% | increase in collagen synthesis by chondrocytes compared to untreated controls (human chondrocytes [3]): 24% | increase in collagen synthesis by dermal fibroblasts compared to untreated controls (human dermal fibroblasts [4]): 38%

Gly-Val-4Hyp-Gly-Lys-Tyr-Gly-Val-Arg-Gly-Leu-Thr-Gly-Pro-Ile-Gly-Pro-4Hyp-Gly-Pro-Leu-Gly-Ile-4Hyp-Gly-Trp-Lys-Gly-Phe-Val-Gly-Pro-Thr (GV[Hyp]GKYGVRGLTGPIGP[Hyp]GPLGI[Hyp]GWKGFVGPT) [SEQ ID No. 23, collagen peptide comprising 33 amino acids]
increase in collagen synthesis (in the proteoglycan assay, chondrocytes) (human chondrocytes [1]): 11% | increase in the synthesis of proteoglycans by dermal fibroblasts compared to untreated controls (human dermal fibroblasts [2]): 22% | increase in collagen synthesis by chondrocytes compared to untreated controls (human chondrocytes [3]): 19% | increase in collagen synthesis by dermal fibroblasts compared to untreated controls (human dermal fibroblasts [4]): 39%

Gly-Ala-4Hyp-Gly-Lys-Asp-Gly-Val-Arg-Gly-Leu (GA[Hyp]GKDGVRGL) [SEQ ID No. 17, collagen peptide comprising 11 amino acids]
increase in collagen synthesis (in the proteoglycan assay, chondrocytes) (human chondrocytes [1]): 31% | increase in the synthesis of proteoglycans by dermal fibroblasts compared to untreated controls (human dermal fibroblasts [2]): 24% | increase in collagen synthesis by chondrocytes compared to untreated controls (human chondrocytes [3]): 33% | increase in collagen synthesis by dermal fibroblasts compared to untreated controls (human dermal fibroblasts [4]): 42%

Gly-Ala-4Hyp-Gly-Pro-Pro-Gly-Pro-4Hyp-Gly-Ala-Arg-Gly-Gln-Ala-Gly-Val-Met-Gly-Phe-4Hyp-Gly-Pro-Lys [SEQ ID No. 10]
increase in collagen synthesis (in the proteoglycan assay, chondrocytes) (human chondrocytes [1]): 29% | increase in the synthesis of proteoglycans by dermal fibroblasts compared to untreated controls (human dermal fibroblasts [2]): 25% | increase in collagen synthesis by chondrocytes compared to untreated controls (human chondrocytes [3]): 20% | increase in collagen synthesis by dermal fibroblasts compared to untreated controls (human dermal fibroblasts [4]): 35%

Gly-Ala-4Hyp-Gly-Lys-Asp-Gly-Val-Arg-Gly-Leu-Thr-Gly-Pro-Ile-Gly-Pro-4Hyp-Gly-Pro-Ala-Gly-Ala-4Hyp-Gly-Asp-Lys-Gly-Glu-Ala-Gly-Pro-Ser-Gly-Pro-Ala-Gly-Pro-Thr-Gly-Ala-Arg-Gly-Ala-4Hyp-Gly-Asp-Arg-Gly-Glu-4Hyp-Gly-Pro-4Hyp-Gly-Pro-Ala-Gly [SEQ ID No. 19]
increase in collagen synthesis (in the proteoglycan assay, chondrocytes) (human chondrocytes [1]): 18% | increase in the synthesis of proteoglycans by dermal fibroblasts compared to untreated controls (human dermal fibroblasts [2]): 29% | increase in collagen synthesis by chondrocytes compared to untreated controls (human chondrocytes [3]): 37% | increase in collagen synthesis by dermal fibroblasts compared to untreated controls (human dermal fibroblasts [4]): 40%

GAPGKDGVRGLTGPIGPPGPAGAPGDKGEAGPS [SEQ ID No. 2, collagen peptide comprising 33 amino acids]
increase in the synthesis of proteoglycans by chondrocytes compared to untreated controls (human chondrocytes [1]): 22% | increase in collagen synthesis (in the proteoglycan assay, dermal fibroblasts) (human dermal fibroblasts [2]): 18% | increase in collagen synthesis by chondrocytes compared to untreated controls (human chondrocytes [3]): 16% | increase in collagen synthesis by dermal fibroblasts compared to untreated controls (human dermal fibroblasts [4]): 22%

GPPGPAGEKGAPGADGPAGAPGTPGPQGIAGQRGV [SEQ ID No. 16, collagen peptide comprising 35 amino acids]
increase in the synthesis of proteoglycans by chondrocytes compared to untreated controls (human chondrocytes [1]): 18% | increase in collagen synthesis (in the proteoglycan assay, dermal fibroblasts) (human dermal fibroblasts [2]): 18% | increase in collagen synthesis by chondrocytes compared to untreated controls (human chondrocytes [3]): 31% | increase in collagen synthesis by dermal fibroblasts compared to untreated controls (human dermal fibroblasts [4]): 22%
